Reference: PubChem BioAssay AID2060885 (Molecular Pharmacology Branch, DTP, NCI, 2025)

Tested on: NCI-H23 complex spheroids with HUVEC/MSC, viability
Experiment: Anticancer human tumor NCI-H23 cell line growth inhibition [RAS];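 note: spheroids exposed to compound for 7 days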;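 for viability, T/C: 100% = DMSO vehicle control viability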
Conditions: for IC50: curve of first compound; for viability, T/C: stronger effect = lower value
Outline: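 Agents were tested in combination matrices in half-log decrements from a top concentration at or near clinical Cmax (10 microM if undetermined). Targets were multi-cell spheroids of tumour lines plus HUVEC and MSC stromal cells.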

[1] = second compound 0.0316 µM, first compound 0.0316 µM
[2] = second compound 0.0316 µM, first compound 0.1 µM
[3] = second compound 0.0316 µM, first compound 0.316 µM
[4] = second compound 0.0316 µM, first compound 1 µM
[5] = second compound 0.0316 µM, first compound 3.16 µM
[6] = second compound 0.0316 µM, first compound 10 µM
[7] = second compound 0.1 µM, first compound 0.0316 µM
[8] = second compound 0.1 µM, first compound 0.1 µM
[9] = second compound 0.1 µM, first compound 0.316 µM
[10] = second compound 0.1 µM, first compound 1 µM
[11] = second compound 0.1 µM, first compound 3.16 µM
[12] = second compound 0.1 µM, first compound 10 µM
[13] = second compound 0.316 µM, first compound 0.0316 µM
[14] = second compound 0.316 µM, first compound 0.1 µM
[15] = second compound 0.316 µM, first compound 0.316 µM
[16] = second compound 0.316 µM, first compound 1 µM
[17] = second compound 0.316 µM, first compound 3.16 µM
[18] = second compound 0.316 µM, first compound 10 µM
[19] = second compound 1 µM, first compound 0.0316 µM
[20] = second compound 1 µM, first compound 0.1 µM
[21] = second compound 1 µM, first compound 0.316 µM
[22] = second compound 1 µM, first compound 1 µM
[23] = second compound 1 µM, first compound 3.16 µM
[24] = second compound 1 µM, first compound 10 µM
[25] = second compound 3.16 µM, first compound 0.0316 µM
[26] = second compound 3.16 µM, first compound 0.1 µM
[27] = second compound 3.16 µM, first compound 0.316 µM
[28] = second compound 3.16 µM, first compound 1 µM
[29] = second compound 3.16 µM, first compound 3.16 µM
[30] = second compound 3.16 µM, first compound 10 µM
[31] = second compound 10 µM, first compound 0.0316 µM
[32] = second compound 10 µM, first compound 0.1 µM
[33] = second compound 10 µM, first compound 0.316 µM
[34] = second compound 10 µM, first compound 1 µM
[35] = second compound 10 µM, first compound 3.16 µM
[36] = second compound 10 µM, first compound 10 µM

Compound `CC1(O)CCCC1n1c(=O)c(C(F)F)cc2cnc(NC3CCN(S(C)(=O)=O)CC3)nc21` (stereo unspecified) + C#Cc1c(F)ccc2cc(O)cc(-c3ncc4c(N5CC6CCC(C5)N6)nc(OCC56CCCN5CC(F)C6)nc4c3F)c12 has an IC50 (second compound 0.0316 µM) of 5490 nM, an IC50 (second compound 0.1 µM) of 5240 nM and an IC50 (second compound 0.316 µM) of 4830 nM. The IC50 (second compound 1 µM) was 3910 nM, the IC50 (second compound 3.16 µM) was under 31.6 nM and the IC50 (second compound 10 µM) was under 31.6 nM. For the same compound, the viability, T/C [1] was 93.3%, the viability, T/C [2] was 92.8% and the viability, T/C [3] was 75.2%. It also gave a viability, T/C [4] of 80.1%, a viability, T/C [5] of 81.7% and a viability, T/C [6] of 15.6%. The viability, T/C [7] was 90.2%, the viability, T/C [8] was 87.4% and the viability, T/C [9] was 58.7%. It also gave a viability, T/C [10] of 77.3%, a viability, T/C [11] of 76.4% and a viability, T/C [12] of 16.3%. It also gave a viability, T/C [13] of 86.5%, a viability, T/C [14] of 74.1% and a viability, T/C [15] of 58%. It also gave a viability, T/C [16] of 65%, a viability, T/C [17] of 72.2% and a viability, T/C [18] of 13.7%. For the same compound, the viability, T/C [19] was 62.6%, the viability, T/C [20] was 66.1% and the viability, T/C [21] was 46.6%. The viability, T/C [22] was 52.7%, the viability, T/C [23] was 66.3% and the viability, T/C [24] was 10.9%. It also gave a viability, T/C [25] of 48.3%, a viability, T/C [26] of 40.2% and a viability, T/C [27] of 34.7%. It also gave a viability, T/C [28] of 40%, a viability, T/C [29] of 42% and a viability, T/C [30] of 7.05%. It also gave a viability, T/C [31] of 32.6%, a viability, T/C [32] of 28.3% and a viability, T/C [33] of 24.9%. For the same compound, the viability, T/C [34] was 27.6%, the viability, T/C [35] was 29.6% and the viability, T/C [36] was 2.78%.

`CCC(CC)c1cc(NC2CCC(N)C2)n2nccc2n1` (stereo unspecified) + C#Cc1c(F)ccc2cc(O)cc(-c3ncc4c(N5CC6CCC(C5)N6)nc(OCC56CCCN5CC(F)C6)nc4c3F)c12 showed an IC50 (second compound 0.0316 µM) of 1800 nM, an IC50 (second compound 0.1 µM) of 1780 nM and an IC50 (second compound 0.316 µM) of 1680 nM. The IC50 (second compound 1 µM) was 1440 nM, the IC50 (second compound 3.16 µM) was 1110 nM and the IC50 (second compound 10 µM) was under 31.6 nM. It also gave a viability, T/C [1] of 102%, a viability, T/C [2] of 129% and a viability, T/C [3] of 99.8%. For the same compound, the viability, T/C [4] was 89.4%, the viability, T/C [5] was 12.8% and the viability, T/C [6] was 1.4%. For the same compound, the viability, T/C [7] was 109%, the viability, T/C [8] was 127% and the viability, T/C [9] was 104%. The viability, T/C [10] was 90.9%, the viability, T/C [11] was 9.22% and the viability, T/C [12] was 1.06%. The viability, T/C [13] was 113%, the viability, T/C [14] was 128% and the viability, T/C [15] was 98.9%. For the same compound, the viability, T/C [16] was 83.1%, the viability, T/C [17] was 10.2% and the viability, T/C [18] was 1.06%. The viability, T/C [19] was 108%, the viability, T/C [20] was 121% and the viability, T/C [21] was 92%. It also gave a viability, T/C [22] of 71.6%, a viability, T/C [23] of 9.15% and a viability, T/C [24] of 0.7%. For the same compound, the viability, T/C [25] was 76.2%, the viability, T/C [26] was 70.1% and the viability, T/C [27] was 57.7%. The viability, T/C [28] was 55.3%, the viability, T/C [29] was 5.85% and the viability, T/C [30] was 0.62%. It also gave a viability, T/C [31] of 36.7%, a viability, T/C [32] of 45.5% and a viability, T/C [33] of 41.9%. It also gave a viability, T/C [34] of 37.9%, a viability, T/C [35] of 3.49% and a viability, T/C [36] of 1.1%.

In the case of `CCN1CCN(Cc2ccc(Nc3ncc(F)c(-c4cc(F)c5nc(C)n(C(C)C)c5c4)n3)nc2)CC1` + C#Cc1c(F)ccc2cc(O)cc(-c3ncc4c(N5CC6CCC(C5)N6)nc(OCC56CCCN5CC(F)C6)nc4c3F)c12, the IC50 (second compound 0.0316 µM) is reported as over 1000 nM, the IC50 (second compound 0.1 µM) is reported as over 1000 nM and the IC50 (second compound 0.316 µM) is reported as 89.5 nM. It also gave an IC50 (second compound 1 µM) of 56.2 nM, an IC50 (second compound 3.16 µM) of 12.2 nM and an IC50 (second compound 10 µM) of under 3.16 nM. It also gave a viability, T/C (second compound 0.0316 µM, first compound 0.00316 µM) of 105%, a viability, T/C (second compound 0.0316 µM, first compound 0.01 µM) of 102% and a viability, T/C [1] of 79%. It also gave a viability, T/C [2] of 61.8%, a viability, T/C [3] of 61.2% and a viability, T/C [4] of 60.9%. For the same compound, the viability, T/C (second compound 0.1 µM, first compound 0.00316 µM) was 104%, the viability, T/C (second compound 0.1 µM, first compound 0.01 µM) was 108% and the viability, T/C [7] was 70%. It also gave a viability, T/C [8] of 56.8%, a viability, T/C [9] of 50.9% and a viability, T/C [10] of 52.2%. It also gave a viability, T/C (second compound 0.316 µM, first compound 0.00316 µM) of 94.2%, a viability, T/C (second compound 0.316 µM, first compound 0.01 µM) of 109% and a viability, T/C [13] of 71.8%. For the same compound, the viability, T/C [14] was 51.4%, the viability, T/C [15] was 48.4% and the viability, T/C [16] was 43.3%. The viability, T/C (second compound 1 µM, first compound 0.00316 µM) was 81.2%, the viability, T/C (second compound 1 µM, first compound 0.01 µM) was 75% and the viability, T/C [19] was 56.6%. The viability, T/C [20] was 42.6%, the viability, T/C [21] was 40.4% and the viability, T/C [22] was 34.7%. It also gave a viability, T/C (second compound 3.16 µM, first compound 0.00316 µM) of 54.5%, a viability, T/C (second compound 3.16 µM, first compound 0.01 µM) of 53.3% and a viability, T/C [25] of 37.9%. For the same compound, the viability, T/C [26] was 29%, the viability, T/C [27] was 30% and the viability, T/C [28] was 22.8%. The viability, T/C (second compound 10 µM, first compound 0.00316 µM) was 30.3%, the viability, T/C (second compound 10 µM, first compound 0.01 µM) was 39.5% and the viability, T/C [31] was 26.5%. It also gave a viability, T/C [32] of 21.1%, a viability, T/C [33] of 22.2% and a viability, T/C [34] of 21%.
